Measurements published in paper PMC8119466, “A screen of FDA-approved drugs identifies inhibitors of protein tyrosine phosphatase 4A3 (PTP4A3 or PRL-3)” (Scientific Reports, 2021).
Counter-ions that a name gives are not always drawn. Like-named read-outs stand apart in the source and are kept apart here. Non-standard residues stand in square brackets, D forms with d. Residues, ends and D or L forms follow the SMILES beside them. pGlu = O=C1CC[C@@H](C(=O)O)N1; Thz = O=C(O)[C@@H]1CSCN1

Columns and labels:
Format in all cases: biochemical
recombinant PRL-1 = biological target: T1, recombinant PRL-1 (Homo sapiens, UniProt Q93096); test: In vitro phosphatase assay (DiFMUP hydrolysis), PRL-1; further: test concentration or dose not given here
T1 construct: 6xHis (N, cleaved yes); made in house; host or cells: E. coli One Shot BL21 Star
T1 sequence (Q93096 1-173): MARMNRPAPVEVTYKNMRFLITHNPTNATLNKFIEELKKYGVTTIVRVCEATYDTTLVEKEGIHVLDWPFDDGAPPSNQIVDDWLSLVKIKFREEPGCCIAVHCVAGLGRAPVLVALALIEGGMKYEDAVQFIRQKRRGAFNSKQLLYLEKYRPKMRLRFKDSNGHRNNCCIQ

recombinant PRL-2 = biological target: T2, recombinant PRL-2 (Homo sapiens, UniProt Q12974); test: In vitro phosphatase assay (DiFMUP hydrolysis), PRL-2;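 further: PRL-2 activity read as DiFMUP hydrolysis after 20 min at room temperature with drug, enzyme first pre-reduced at 4 °C for 20 min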
T2 construct: 6xHis (N, cleaved yes); made in house; host or cells: E. coli One Shot BL21 Star
T2 sequence (Q12974 1-167): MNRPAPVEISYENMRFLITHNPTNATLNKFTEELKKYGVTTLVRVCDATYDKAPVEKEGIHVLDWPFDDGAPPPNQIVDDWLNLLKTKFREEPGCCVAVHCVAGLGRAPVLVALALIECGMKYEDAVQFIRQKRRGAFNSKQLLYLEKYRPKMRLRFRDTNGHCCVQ

recombinant PRL-3 = biological target: T3, recombinant PRL-3 (Homo sapiens, UniProt O75365); test: In vitro phosphatase assay (DiFMUP hydrolysis), PRL-3; further: test concentration or dose not given here
T3 construct: 6xHis (N, cleaved yes); made in house; host or cells: E. coli One Shot BL21 Star

[1] = FDA-approved drug screen, compared to DMSO

T3 sequence (O75365 whole entry): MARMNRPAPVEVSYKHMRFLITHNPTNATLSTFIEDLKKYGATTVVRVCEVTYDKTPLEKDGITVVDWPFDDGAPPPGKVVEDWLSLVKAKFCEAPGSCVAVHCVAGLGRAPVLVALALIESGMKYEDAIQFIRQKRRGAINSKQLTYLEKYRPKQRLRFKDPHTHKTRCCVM

Row | SMILES | % Phosphatase Activity (compared to DMSO) PRL-1 (recombinant PRL-1; [1]) | % Phosphatase Activity (compared to DMSO) PRL-2 (recombinant PRL-2; [1]) | % Phosphatase Activity (compared to DMSO) PRL-3 (recombinant PRL-3; [1]) | % Phosphatase Activity (compared to DMSO) PRL-1 (recombinant PRL-1) | % Phosphatase Activity (compared to DMSO) PRL-2 (recombinant PRL-2) | % Phosphatase Activity (compared to DMSO) PRL-3 (recombinant PRL-3)
1 | CNC[C@H](O)c1cccc(O)c1 [Phenylephrine HCl] | 103% | 98% | 85% | – | – | –
2 | O=C1NC(=O)C(c2ccccc2)(c2ccccc2)N1 [Phenytoin sodium] | 100% | 100% | 68% | – | – | –
3 | CC(=O)NS(=O)(=O)c1ccc(NC(=O)c2ccccc2C(=O)O)cc1 [Phthalylsulfacetamide] | 104% | 120% | 101% | – | – | –
4 | O=C1CC[C@@H](C(=O)N2CSC[C@H]2C(=O)O)N1 [Pidotimod] ([pGlu]-[Thz]-OH) | 113% | 103% | 83% | – | – | –
5 | Cc1ccc(S(=O)(=O)Nc2nc3ccccc3nc2Nc2ccc3nsnc3c2)cc1 [Pilaralisib (XL147)] | 94% | 65% | 98% | – | – | –
6 | O=C(NC[C@H](O)CO)c1ccncc1Nc1ccc(I)cc1F [Pimasertib (AS-703026)] | 99% | 92% | 84% | – | – | –
7 | CC(C)COc1ccc(CNC(=O)N(Cc2ccc(F)cc2)C2CCN(C)CC2)cc1 [Pimavanserin] | 95% | 88% | 95% | – | – | –
8 | CC[C@@H]1/C=C(\C)C[C@H](C)C[C@H](OC)[C@H]2O[C@@](O)(C(=O)C(=O)N3CCCC[C@H]3C(=O)O[C@H](/C(C)=C/[C@@H]3CC[C@H](Cl)[C@H](OC)C3)[C@H](C)[C@@H](O)CC1=O)[C@H](C)C[C@@H]2OC [Pimecrolimus] | 87% | 73% | 101% | – | – | –
9 | COc1ccc(-c2nc3ccc(C4=NNC(=O)CC4C)cc3[nH]2)cc1 (stereo not drawn) [Pimobendan] | 122% | 118% | 95% | – | – | –
10 | O=c1[nH]c2ccccc2n1C1CCN(CCCC(c2ccc(F)cc2)c2ccc(F)cc2)CC1 [Pimozide] | 91% | 106% | 96% | – | – | –
11 | CCc1ccc(CCOc2ccc(CC3SC(=O)NC3=O)cc2)nc1 (stereo not drawn) [Pioglitazone HCl] | 81% | 100% | 86% | – | – | –
12 | CCc1ccc(CCOc2ccc(CC3SC(=O)NC3=O)cc2)nc1 (stereo not drawn) [Pioglitazone] | 103% | 105% | 80% | – | – | –
13 | CCN1CCN(C(=O)N[C@@H](C(=O)N[C@@H]2C(=O)N3[C@@H]2SC(C)(C)[C@@H]3C(=O)O)c2ccccc2)C(=O)C1=O [Piperacillin Sodium] | 86% | 91% | 73% | – | – | –
14 | C1CNCCN1 [Piperazine] | – | – | – | 95% | 112% | 71%
15 | O=C(/C=C/C=C/c1ccc2c(c1)OCO2)N1CCCCC1 [Piperine] | 125% | 119% | 106% | – | – | –
16 | NC(=O)CN1CCCC1=O [Piracetam] | 98% | 96% | 83% | – | – | –
17 | Cc1ccc(=O)n(-c2ccccc2)c1 [Pirfenidone] | 114% | 137% | 97% | – | – | –
18 | CCn1cc(C(=O)O)c(=O)c2cnc(N3CCCC3)nc21 [Piromidic Acid] | 105% | 106% | 96% | – | – | –
19 | CN1C(C(=O)Nc2ccccn2)=C(O)c2ccccc2S1(=O)=O [Piroxicam] | 88% | 76% | 70% | – | – | –
20 | O=C(O)C[C@H](O)C[C@H](O)/C=C/c1c(C2CC2)nc2ccccc2c1-c1ccc(F)cc1 [Pitavastatin Calcium] | 82% | 88% | 92% | – | – | –

Row | SMILES | % Phosphatase Activity (compared to DMSO) PRL-1 (recombinant PRL-1; [1]) | % Phosphatase Activity (compared to DMSO) PRL-2 (recombinant PRL-2; [1]) | % Phosphatase Activity (compared to DMSO) PRL-3 (recombinant PRL-3; [1]) | % Phosphatase Activity (compared to DMSO) PRL-1 (recombinant PRL-1) | % Phosphatase Activity (compared to DMSO) PRL-2 (recombinant PRL-2) | % Phosphatase Activity (compared to DMSO) PRL-3 (recombinant PRL-3)
21 | CN1CCC(=C2c3ccccc3CCc3sccc32)CC1.O=C(O)CC(O)C(=O)O [Pizotifen Malate] | 114% | 109% | 95% | – | – | –
22 | Nc1cccc2c1C(=O)N(C1CCC(=O)NC1=O)C2=O (stereo not drawn) [Pomalidomide] | 264% | 248% | 204% | – | – | –
23 | Cc1ccc(C(=O)Nc2ccc(CN3CCN(C)CC3)c(C(F)(F)F)c2)cc1C#Cc1cnc2cccnn12 [Ponatinib (AP24534)] | 396% | 417% | 319% | – | – | –
24 | CCC/N=C1\S/C(=C\c2ccc(OC[C@H](O)CO)c(Cl)c2)C(=O)N1c1ccccc1C [Ponesimod] | 88% | 79% | 86% | – | – | –
25 | CC[C@@H]([C@H](C)O)n1ncn(-c2ccc(N3CCN(c4ccc(OC[C@@H]5CO[C@@](Cn6cncn6)(c6ccc(F)cc6F)C5)cc4)CC3)cc2)c1=O [Posaconazole] | 89% | 99% | 73% | – | – | –
26 | [I-].[K+] [Potassium Iodide] | 94% | 91% | 87% | – | – | –
27 | C=CC(=O)N1CCC(Oc2cc3c(Nc4ccc(Cl)c(Cl)c4F)ncnc3cc2OC)CC1 [Poziotinib (HM781-36B)] | 96% | 80% | 106% | – | – | –
28 | CCCCc1nc2cc(/C=C/C(=O)NO)ccc2n1CCN(CC)CC [Pracinostat (SB939)] | 96% | 87% | 80% | – | – | –
29 | C#CCC(Cc1cnc2nc(N)nc(N)c2n1)c1ccc(C(=O)N[C@@H](CCC(=O)O)C(=O)O)cc1 (stereo partly drawn) [Pralatrexate] | 1180% | 1210% | 875% | – | – | –
30 | C[n+]1ccccc1/C=N/O.[Cl-] [Pralidoxime (chloride)] | 99% | 91% | 105% | – | – | –
31 | CCCN[C@H]1CCc2nc(N)sc2C1 [Pramipexole dihydrochloride monohydrate] | – | – | – | 87% | 98% | 90%
32 | CCCN[C@H]1CCc2nc(N)sc2C1 [Pramipexole] | – | – | – | 109% | 106% | 72%
33 | CCCCOc1ccc(OCCCN2CCOCC2)cc1 [Pramoxine HCl] | 82% | 91% | 74% | – | – | –
34 | O=C(Nc1cccc2c(=O)cc(-c3nnn[nH]3)oc12)c1ccc(OCCCCc2ccccc2)cc1 [Pranlukast] | 147% | 205% | 54% | – | – | –
35 | CC(C(=O)O)c1ccc2c(c1)Cc1cccnc1O2 (stereo not drawn) [Pranoprofen] | 97% | 87% | 92% | – | – | –
36 | CC(=O)Oc1cc2c(s1)CCN(C(C(=O)C1CC1)c1ccccc1F)C2 (stereo not drawn) [Prasugrel Hydrochloride] | 92% | 109% | 87% | – | – | –
37 | CC(=O)Oc1cc2c(s1)CCN(C(C(=O)C1CC1)c1ccccc1F)C2 (stereo not drawn) [Prasugrel] | 91% | 88% | 79% | – | – | –
38 | CC[C@H](C)C(=O)O[C@H]1C[C@H](O)C=C2C=C[C@H](C)[C@H](CC[C@@H](O)C[C@@H](O)CC(=O)O)[C@H]21 [Pravastatin sodium] | 93% | 113% | 93% | – | – | –
39 | O=C(C1CCCCC1)N1CC(=O)N2CCc3ccccc3C2C1 (stereo not drawn) [Praziquantel] | 102% | 88% | 73% | – | – | –
40 | COc1cc2nc(N3CCN(C(=O)c4ccco4)CC3)nc(N)c2cc1OC [Prazosin HCl] | 460% | 435% | 263% | – | – | –
